These results are taken from patent US8293681B2, “Seed treatment agent and method for protecting plant” (Sumitomo Chemical Company, Ltd., priority 2008, dated 2012).

SMILES strings stand for the structures.

The test system of assay [1] is root rot on pea (Fusarium solani f. sp. pisi). As to the kind of experiment: Test Example 1: seed treatment of pea, control of root rot. In kind it is in vivo. Particulars: pea seeds, 10 gai/100 kg seed. As for the experimental part:
(§1) 10 μl of a dimethylsulphoxide solution of the compound (1b) and 10 g of pea (Waiseiakabanakinusaya) seeds were put in a 50 ml tube and mixed to allow the compound (1b) to stick to the surface of the seeds and then the mixture was allowed to stand still overnight to obtain treated seeds of the present invention. A plastic pot was filled with sandy soil, and the treated seeds of the present invention were disseminated. Then the seeds were covered with sandy soil, which had been mixed with a bran medium on which root rot on pea (Fusarium solani f. sp. pisi) had been allowed to grow and the peas were grown in a greenhouse of from 22 to 24° C. for six days while sprinkling water appropriately. A spore suspension of root rot on pea was perfused on the root of the seedlings for inoculation and the peas were allowed to grow in a greenhouse for further six days and the control effect was checked.
Besides, the incidence of disease was also checked in the case of seeds without the treatment with the agent in order to calculate the control value.
(§2) The incidence of disease was calculated by Equation 1 and the control value was calculated by Equation 2 based on the incidence of disease.
Incidence of disease=(Number of no budding seeds and number of seedlings in which development of disease was observed)×100/(Number of total disseminated seeds) “Equation 1” Control value=100×(A−B)/A “Equation 2” […]

The next assay deals with rice 'Bakanae' disease. As to the kind of experiment: Test Example 2: immersion of unhulled rice seeds affected with rice 'Bakanae' disease. On the set-up: key to Incidence of disease: % of seedlings diseased: diseased×100/total seedlings; key to Control value: 100×(A−B)/A, from incidence of disease (untreated A, treated B). In kind it is in vivo, Gibberella fujikuroi. Particulars: rice seeds immersed 24 hours; for Incidence of disease: untreated 19.2. As for the experimental part: Incidence of disease=(Number of no budding seeds and number of seedlings in which development of disease was observed)×100/(Number of total disseminated seeds) “Equation 1” Control value=100×(A−B)/A “Equation 2” The flowable of the compound (1a) and the flowable of the compound (1b) were diluted with water to prepare an agent solution containing the compound (1a) or compound (1b). Unhulled rice seeds (Tanginbozu) affected with rice ‘Bakanae’ disease was immersed in the agent solution for 24 hours and then the unhulled rice seeds were taken out of the agent solution and air dried to obtain treated seeds. The treated seeds were immersed in water at 12° C. for 4 days and subsequently in water at 30° C. overnight. A plastic pot was filled with sandy soil, and the treated seeds were disseminated and allowed to grow in a greenhouse at 26° C. for 23 days to investigate the control effect. Besides, the incidence of disease was also checked in the case of seeds without the treatment with the agent in order to calculate the control value. The incidence of disease was calculated by Equation 3 and the control value was calculated based on the incidence of disease by Equation 2. Incidence of disease=(Number of seedlings in which development of disease was observed)×100/(Number of total seedlings) “Equation 3”

For assay [2], the system named is root rot on pea (Fusarium solani f. sp. pisi). As to the kind of experiment: Test Example 3: seed treatment of pea, control of root rot, with reference compounds. In kind it is in vivo. On the set-up: key to Incidence of disease: % = (non-budding seeds + diseased seedlings)×100/total seeds; key to Control value: control value = 100×(A−B)/A, A = untreated, B = treated incidence. To be noted: pea seeds; for Incidence of disease: untreated 53. As to the method:
Incidence of disease=(Number of no budding seeds and number of seedlings in which development of disease was observed)×100/(Number of total disseminated seeds) “Equation 1” Control value=100×(A−B)/A “Equation 2”
as §1, with “of the compound (1a) or compound (1b)” for “of the compound (1b)”, “allow the compound (1a) or compound (1b)” for “allow the compound (1b)”
Besides, the incidence of disease was also checked in the case of seeds without the treatment with the agent in order to calculate the control value. Also, 2-[2-(2-methyl-phenoxymethyl)-phenyl]-2-methoxy-N-methyl-acetamide, which is described in International Publication WO 95/27,693 and hereinafter referred to as compound A, and 2-[2-(2-chloro-5-methyl-phenoxymethyl)-phenyl]-2-methoxy-N-methyl-acetamide, which is described in International Publication WO 96/07,633 and hereinafter referred to as compound B, were used as reference compounds.
as §2

Turning to `CNC(=O)C(OC)c1ccccc1COc1cc(C)ccc1C` (racemic) [Compound (1b)], the Control value turned out to be 100 in assay [1]; 95 in the assay with rice 'Bakanae' disease (62.5 ppm); 93 in the assay on rice 'Bakanae' disease (125 ppm); 92 in the assay with rice 'Bakanae' disease (500 ppm); 93 in the assay with rice 'Bakanae' disease (2000 ppm); 81 in assay [2] (2.5 gai/100 kg seed). In addition, in assay [2] (10 gai/100 kg seed), the Control value was found to be 100. The Incidence of disease in assay [1] (untreated 33) turned out to be 0; in the assay on rice 'Bakanae' disease (62.5 ppm), 0.9; in the assay with rice 'Bakanae' disease (125 ppm) it was 1.4; in the assay on rice 'Bakanae' disease (500 ppm), 1.6; in the assay with rice 'Bakanae' disease (2000 ppm) it was 1.3; in assay [2] (2.5 gai/100 kg seed), 10. In addition, the Incidence of disease in assay [2] (10 gai/100 kg seed) was 0.
Regarding `CNC(=O)[C@H](OC)c1ccccc1COc1cc(C)ccc1C` [Compound (1a)], in assay [2] (2.5 gai/100 kg seed), the Control value is 97 and the Incidence of disease was 4. Moreover, in assay [2] (10 gai/100 kg seed), the Control value was 100 and the Incidence of disease is 0.
For `CNC(=O)C(OC)c1ccccc1COc1ccccc1C` (centres unmarked) [Compound A, 2-[2-(2-methyl-phenoxymethyl)-phenyl]-2-methoxy-N-methyl-acetamide, reference compound], in that order: 57, 23, 87 and 7.
For `CNC(=O)C(OC)c1ccccc1COc1cc(C)ccc1Cl` (centres unmarked) [Compound B, 2-[2-(2-chloro-5-methyl-phenoxymethyl)-phenyl]-2-methoxy-N-methyl-acetamide, reference compound], in that order: 62, 20, 81 and 10.
